Measurements as given in patent US7396946B2, “Compound for treatment of external secretion disorders” (Sucampo AG, priority 1999, dated 2008).

Test system: normal rabbits
Assay: Effect on whole tear secretion of normal rabbits, rate of increase (Test Example 5)
Type: in vivo, Male Japanese albino rabbits
Settings: 30 μl/eye single, 2 hours after the instillation compared with before (0 hour), 4 eyes
Protocol: Male Japanese albino rabbits were used.
(2) Method of Administration
Ophthalmic solution comprising an active ingredient of the present invention was prepared and used as a test composition.
Each of the compositions was instilled to the eye singly at the amount of 30 μl/eye.
Amount of the Tear Secretion
Before (0 hour) and 2 hours after the instillation, the whole tear secretion was determined.
Under no anesthetization, one edge of the Schirmer's test strip (Showa Yakuhin Kako Co., Ltd.) was inserted into the conjunctival sac of the each test animal. One minute after, the strip was removed and the length of the moisted part was read from the scale provided on the strip to determine the amount of whole tear secretion.
The rate (%) of increased amount of whole tear secretion was calculated at the 2 hours after the instillation compared with the before (0 hour).

2-decarboxy-2-(2-carboxyethyl)-13,14-dihydro difluoro-PGE1 [Compound 3]
Rate of the increased whole tear secretion (10 μg/ml ophthalmic solution): 52.0%

CCCC(F)(F)C(=O)C=CCC1C(O)CC(=O)C1CCCCCCC(=O)OC (centres unmarked) [Compound 1, 15-dehydroxy-13,14-dihydro-14,15-dehydro-16keto-17,17-difluoro-PGE1-methyl ester]
Rate of the increased whole tear secretion (30 μg/ml ophthalmic solution): 40.7%

CCCCCCC(F)(F)C(=O)CCC1C(O)CC(=O)C1CCCCCCC(=O)O (centres unmarked) [Compound 2, 13,14-dihydro-15-keto-16,16-difluoro-20-ethyl-PGE1]
Rate of the increased whole tear secretion (10 μg/ml ophthalmic solution): 52.5%

CCCCC(F)(F)C(=O)CCC1C(O)CC(O)C1C/C=C\CCCC(=O)OC (centres unmarked) [Compound 4, 13,14-dihydro-15-keto-16,16-difluoro-PGF2a-Methyl ester]
Rate of the increased whole tear secretion (3 ug/ml ophthalmic solution): 61.8%

CCCCC(F)(F)C(=O)CCC1CCC(=O)C1CCCCCCC(=O)O (centres unmarked) [Compound 5, 11-dehydroxy-13,14-dihydro-15-keto-16,16-difluoro-PGE1]
Rate of the increased whole tear secretion (3 ug/ml ophthalmic solution): 43.5%

CCCCCC(=O)CC[C@H]1[C@H](O)CC(=O)[C@@H]1CCCCCCC(=O)O [Compound 6, 13,14-dihydro-15-keto-PGE1]
Rate of the increased whole tear secretion (100 μg/ml ophthalmic solution): 44.0%

CCCCCCC(F)(F)C(=O)CCC1C(O)CC(=O)C1CCCCCCCCC(=O)OC(C)C (centres unmarked) [Compound 7, 2-decarboxy-2-(2-carboxyethyl)-13,14-dihydro 15-keto-16,16-difluoro-20-ethyl-PGE1-isopropyl ester]
Rate of the increased whole tear secretion (2O00 μg/ml ophthalmic solution): 56.9%

CCCCC(F)(F)C(=O)CCC1C(O)CC(=O)C1C/C=C\CCCC(=O)O (centres unmarked) [Compound 8, 13,14-dihydro-15-keto-16,16-difluoro-PGE2]
Rate of the increased whole tear secretion (1 μg/ml ophthalmic solution): 24.8%
